Results as given in PMC10460801 (Advanced Pharmaceutical Bulletin, 2022).
Converted amounts (≈) assume the structure as drawn. Where two headings read alike, the source gives them in different places.

What was measured:
[1] = Saturation shake-flask equilibrium solubility (48 h, 37 °C, UV-Vis); type: physicochemical; conditions: for solubility thermodynamic at 48 h: thermodynamic from solid, read-out: Css mean
Description: In this study dissolution test has been performed in the presence of amino acids within various media, including phosphate buffer solution (pH = 7.4), hydrochloric acid buffer (pH = 1.2), citrate buffer (pH = 6 and pH = 4.2), and distilled water (pH = 6.5). Briefly, for each buffer, a suitable amount of components was transferred to a 250 mL volumetric flask and then diluted with distilled water to the volume line. Finally, the pH of the solution was examined and set using a pH meter (Germany, Metrohm SWISS mode).
The saturation shake-flask method has been used for solubility studies. In brief, buffer solutions containing different concentrations of each amino acid were prepared. An excess amount of each drug was weighed in capped vials, then buffers alone and mixed with amino acids were added to the vials and the pH change was set again. After that, capped vials were shaken for about 48 hours on a shaker incubator (Korea, HYSC) at speed of 150 RPM and 37^ᵒC to reach equilibrium and result a saturated solution. After 48 hours the upper phase was separated and centrifuged. Filtered samples were diluted with buffer before reading their UV-Vis absorbance. Then the amount of solubility was calculated using a calibration curve considering the dilution coefficient. Each of the experiments was repeated three times.

[2] = cited from earlier work
[3] = cited from earlier work; remark: listed apart in the source
[4] = Citrate buffer, pH 6 before incubation, 48 h, 37 °C
[5] = Phosphate buffer, pH 7.4 before incubation, 48 h, 37 °C
[6] = Water, pH 6.5 before incubation, 48 h, 37 °C
[7] = aqueous buffer, Citrate buffer, pH 6 before incubation, 48 h, 37 °C
[8] = aqueous buffer, Phosphate buffer, pH 7.4 before incubation, 48 h, 37 °C
[9] = distilled water, pH 6.5, increasing GlucN
[10] = hydrochloric acid buffer, pH 1.2 before incubation, 48 h, 37 °C
[11] = Citrate buffer, pH 4.2 before incubation, 48 h, 37 °C

Measured Css Sample 1 [1, 4]	Measured Css Sample 2 [1, 4]	Measured Css Sample 3 [1, 4]	Measured Css Sample 1 [1, 5]	Measured Css Sample 2 [1, 5]	Measured Css Sample 3 [1, 5]	solubility thermodynamic at 48 h [1, 7]	solubility thermodynamic at 48 h [1, 8]	change of drug solubility in the presence of GlucN ([1]; citrate buffer, pH 6)	change of drug solubility in the presence of GlucN [1, 9]	SMILES	other results
5330 µg/mL	5050 µg/mL	5240 µg/mL	10510 µg/mL	10330 µg/mL	10510 µg/mL	5200 µg/mL (≈ 25.2 mM)	10400 µg/mL (≈ 50.7 mM)	solubility increased	follows an upward pattern	CC(C)Cc1ccc(C(C)C(=O)O)cc1 (stereo not drawn) [IBU, Ibuprofen]	Measured Css Sample 1 [1, 6]: 3210 µg/mL; Measured Css Sample 2 [1, 6]: 3110 µg/mL; Measured Css Sample 3 [1, 6]: 3060 µg/mL; solubility thermodynamic at 48 h ([1]; distilled water, Water, pH 6.5 before incubation, 48 h, 37 °C): 3120 µg/mL (≈ 15.1 mM); Css mean [1, 10]: 800 µg/mL; Measured Css Sample 1 [1, 10]: 790 µg/mL; Measured Css Sample 2 [1, 10]: 820 µg/mL; Measured Css Sample 3 [1, 10]: 790 µg/mL; solubility thermodynamic at 48 h ([1]; simulated gastric fluid, hydrochloric acid buffer, pH 1.2 before incubation, 48 h, 37 °C): 800 µg/mL (≈ 3.88 mM); unionized fraction in the stomach [2]: 99.9%; intrinsic water solubility ([3]; free acid): ~60 µg/mL
140 µg/mL	130 µg/mL	150 µg/mL	1250 µg/mL	1320 µg/mL	1320 µg/mL	140 µg/mL (≈ 0.423 mM)	1290 µg/mL (≈ 3.89 mM)	improved the solubility	does not change significantly	CN1C(C(=O)Nc2ccccn2)=C(O)c2ccccc2S1(=O)=O [PXM, Piroxicam]	Measured Css Sample 1 [1, 11]: 280 µg/mL; Measured Css Sample 2 [1, 11]: 230 µg/mL; Measured Css Sample 3 [1, 11]: 250 µg/mL; solubility thermodynamic at 48 h ([1]; aqueous buffer, Citrate buffer, pH 4.2 before incubation, 48 h, 37 °C): 250 µg/mL (≈ 0.754 mM); change of drug solubility in the presence of GlucN ([1]; citrate buffer, pH 4.2): enhanced; change of drug solubility in the presence of LYS ([1]; citrate buffer, pH 4.2, Figure 3B): did not follow a specific trend; change of drug solubility in the presence of ARG ([1]; phosphate buffer, concentration above molar ratio 1:1 PXM/ARG, Figure 3A): solubility goes down
										N[C@H]1C(O)O[C@H](CO)[C@@H](O)[C@@H]1O (stereo partly drawn) [GlucN, Glucosamine]	water solubility [3]: 320000 µg/mL (≈ 1790 mM)
